Experimental data taken from patent US6559125B1, “Polyamide-alkylator conjugates and related products and method” (priority 2000, dated 2003).

Experiments:
[1] = test system: 3′ and 5′ 32P labeled 241 base pair restriction fragments containing the HIV-1 promoter; assay: Thermal cleavage assay (heat-induced single-strand DNA cleavage); assay type: biochemical
Experimental: Storage phosphor autodiograms of 8% denaturing polyacrylamide gels used to separate the fragments generated by heat induced DNA cleavage at alkylation sites. All reactions contained 10,000 cpm restriction fragment, 10 mM Tris.HCl (pH 7.0), 10 mM KCl, 10 mM MgCl and 5 mM CaCl and were performed at 37° C. Following 24 hour of equilibration, the DNA pellet was resuspended in sodium citrate buffer (pH=7.2) and heated to 90° C. for 15 min to thermally cleave at sites of adenine- or guanine-N3 lesions. (a) 5′-^32P-end-labeled restriction fragment (SEQ ID NO:5). (b) 3′-^32P-end-labeled restriction fragment. (a-b) Lane 1, intact DNA; lane 2, A-specific reaction; lane 3, G-specific reaction; lanes 5-13, […], respectively. (b) Lane 14, 10 μM CHL-Dp (5). Center, alkylation sites on the DNA fragment, indicate by arrows. Sites 5′-TCGTCGACGA-3′ (SEQ ID NO:20) (A), 5′-ACGTCGA-3′ (B), and 5′-ACGTCGA-3′ (E) are match sites and 5′-ACATCTT-3′ (C) and 5′-TCGTCAG-3′ (D) are double base pair mismatches (mismatches indicated by gray boxes).
Storage phosphor autodiogram of 8% denaturing polyacrylamide gels used to separate the fragments generated by heat induced DNA cleavage at alkylation sites. All reactions contained 10,000 cpm restriction fragment, 10 mM Tris.HCl (pH 7.0), 10 mM KCl, 10 mM MgCl2 and 5 mM CaCl2 and were performed at 37° C. Following of equilibrations of 10 minutes-24 hours, the DNA pellet was resuspended in sodium citrate buffer (pH=7.2) and heated to 90° C. for 15 min to thermally cleave at sites of adenine- or guanine-N3 lesions. Lane 1, intact DNA; lane 2, A-specific reaction; lane 3, G-specific reaction; lanes 4-11, 500 pM ImPy-β-ImPy-(R)^CHLγ-ImPy-β-ImPy-β-Dp (2), equilibrations for 10 min, 20 min, 30 min, 1 h, 2 h, 4 h, 12 h, 24 h, respectively. Right. models bound to match sites on the DNA fragment (SEQ ID NO:15). The polyamide is colored as in FIG. 7. The solid arrows indicate cleavage bands from cleavage sites of adenine- or guanine-N3 lesions on the restriction fragment.
All reactions were executed in a total volume of 40 μl. A polyamide stock solution or H2O was added to an assay buffer containing radiolabeled restriction fragment (10,000 cpm), affording final solution conditions of 10 mM Tris.HCl, 10 mM KCl, 10 mM MgCl2, 5 mM CaCl2, pH 7.0, and either 1 pM-10 nM nitrogen mustard-polyamide conjugate or no conjugate (for reference lanes). The solutions were equilibrated at 37° C. for the desired time period. The reactions were stopped by the addition of 60 μl of a solution containing 0.6 M NaOAc, 12.5 mM EDTA, 0.15 mM (bp) calf thymus DNA, 2.0 M NaCl, 0.8 mg/ml glycogen, and ethanol precipitated. Reactions were resuspended in 40 μl […] sodium citrate buffer, pH 7.2, and heated for […] The reactions were ethanol precipitated and resuspended in 1×TBE/80% formamide loading buffer, denatured by heating at 85° C. for 10 minutes, and placed on ice. The reaction products were separated by electrophoresis on an 8% polyacrylamide gel (5% cross-link, 7 M urea) in 1×TBE at 2000 V. Gels were dried and exposed to a storage phosphor screen (Molecular Dynamics) [Johnston, R. F., Pickett, S. C. & Barker, D. L. (1990). Autoradiography using storage phosphor technology. Electrophoresis 11, 355-360].

[2] = test system: 5′-end labeled and 3′-end labeled 277 base pair restriction fragment; assay: Thermally induced strand cleavage by seco-CBI conjugates; assay type: biochemical; settings: for concentration range of alkylation by CBI control compounds: FIG. 17, 1 μM and 10 μM, 12 H, 37° C.
Experimental: Storage phosphor autoradiograms of 8% denaturing polyacrylamide gels used to separate the fragments generated by heat induced DNA cleavage at alkylation sites. All lanes contain 10 kcpm of either 5′ or 3′ radiolabeled DNA. Each reaction was equilibrated in TE, pH 7.5 at 37° C. for 12 H. The unbound polyamide was removed by precipitation, and then strand cleavage was induced by heating at 95° C. for 30 min. (a) 5′-^32P-end labeled restriction fragment (SEQ ID NO:18). (b) 3′-^32P-end labeled restriction fragment. (a-b) lanes 1 and 14, intact DNA; lanes 2-11, 15-24, 1 pM, 2 pM, 5 pM, 10 pM, 20 pM, 50 pM, 100 pM, 200 pM, 500 pM, 1 nM respectively of the corresponding polyamide; lanes 12 and 25, A-specific reaction; lanes 13 and 26, G-specific reaction. (a-b) Ball-and-stick models of polyamides bound to match and mismatch sites on the DNA fragment. Match sites 5′-TGGTCA-3′ and 5′-AGGACT-3′ and single base pair mismatch site 5′-AGGAGT-3′ are indicated in bold on the sequence, with arrows indicating cleavage bands. The polyamide is colored as in FIG. 10, with the bold triangle representing (R)-CBI.
Storage phosphor autoradiograms of 8% denaturing polyacrylamide gels used to separate the fragments generated by heat induced DNA cleavage at alkylation sites. All lanes contain 10 kcpm of either 5′ or 3′ radiolabeled DNA. Each reaction was equilibrated in TE, pH 7.5 at 37° C. from 0 to 10 hours. The unbound polyamide was removed by precipitation, and then strand cleavage was induced by heating at 95° C. for 30 min. (a) 5′-^32P-end labeled restriction fragment (SEQ ID NO: 18). (b) 3′-^32P-end labeled restriction fragment. (a-b) lanes 1 and 11, intact DNA; lanes 2-8, 1 nM of corresponding polyamide, equilibrations for 0, 15 minutes, 30 minutes, 1 hour, 2 hours, 5 hours, and 10 hours, respectively; lanes 9 and 19, A-specific reaction; lanes 10 and 20, G-specific reaction. (a-b) Ball-and-stick models of polyamides bound to match and mismatch sites on the DNA fragment. Match sites 5′-TGGTCA-3′ and 5′-AGGACT-3′ and single base pair mismatch site 5′-AGGAGT-3′ are indicated in bold on the sequence, with arrows indicating cleavage bands. The polyamide is colored as in FIG. 10, with the bold triangle representing (R)-CBI.
Storage phosphor autoradiograms of 8% denaturing polyacrylamide gels used to separate the fragments generated by heat induced DNA cleavage at alkylation sites. All lanes contain 10 kcpm of either 5′ or 3′ radiolabeled DNA. Each reaction was equilibrated in TE, pH 7.5 at 37° C. for 12 H. The unbound polyamide or agent was removed by precipitation, and then strand cleavage was induced by heating at 95° C. for 30 min. (a) 5′-^32P-end labeled restriction fragment. (b) 3′-^32P-end labeled restriction fragment. (a-b) Lane 1, intact DNA; lane 2, 1R, 1 nM; lane 3 1S, 1 nM; lanes 4-5, 2R, 1 μM and 10 μM, respectively; lanes 6-7, 2S, 1 μM and 10 μM, respectively; lane 8, A-specific reaction; lane 9, G-specific reaction.
All reactions were carried out in a volume of 50 μl. A polyamide or seco-CBI-dimethyl gaba stock solution or water (for reference lane) was added to an assay buffer of TE (pH7.5) and […] of 3′- or 5′-radiolabeled DNA. The solutions were allowed to equilibrate for 12 hours or the appropriate time (for time course reactions) at 37° C. The reactions were stopped with 60 μl of a solution containing NaOAc (600 mM), EDTA pH 8.0 (12.5 mM), calf thymus DNA (150 μM base pair), glycogen (0.8 mg mL^−1), and NaCl (2 M). Ethanol was added to remove unbound polyamide and precipitate the products. The reactions were resuspended in 20 μl of TE (pH 7.5) and cleavage was initiated by heating at 95° C. for 30 minutes. The cleavage products were precipitated with 150 μl ethanol and then resuspended in 100 mM trisborate-EDTA/80% formamide loading buffer, and denatured and loaded onto polyacrylamide gels as previously reported. The gels were quantitated by the use of storage phosphor technology. […]

## ImPy-β-ImPy-(R)^CHLγ-ImPy-β-ImPy-β-Dp [conjugate 2]
[1]
  concentration at which minor cleavage was observed proximal to double base pair mismatch sites: greater than 1 nM
  specificity for reaction at match sites over mismatch sites: approximately 20 fold
[1]; 0.5 nM, pH 7.0, 37° C.
  earliest time at which cleavage was detectable: 10 min
[1]; 0.5 nM, pH 7.0, 37° C., 24 hours
  final cleavage yield on the bottom strand: 45%
[1]; 0.5 nM, pH 7.0, 37° C., monitored for 24 hours
  time at which alkylation was half completed at match sites: 2.2 h
[1]; 10 nM concentration, 37° C.
  cleavage on one strand (bottom strand): quantitative cleavage
[1]; subnanomolar concentrations
  alkylation at subnanomolar concentrations: high yield

## ImImPyPy-(R)^(S)-CBIγ-ImPyPyPy-β-Dp [conjugate 1S]
[2]
  site of alkylation: alkylates adjacent to a match site

## CN(C)CCCNC(=O)CCCc1ccc(N(CCCl)CCCl)cc1 [compound 4, 4-{4-[bis (2-chloroethyl)amino]phenyl}-N-[3-(dimethylamino)propyl]butanamide]
[1]; 10 μM concentration
  cleavage by freely diffusing alkylator: no cleavage

## (S)-Seco-CBI-β-alanine-(dimethyl)-γ-aminobutyric acid [2S]
[2]
  concentration range of alkylation by CBI control compounds: alkylate only at micromolar concentrations

## ImImPyPy-(R)^(R)-CBIγ-ImPyPyPy-β-Dp [conjugate 1R]
[2]
  alkylation efficiency and rate compared with the other enantiomer conjugate: higher alkylation efficiency and faster rates of alkylation than 1S
  alkylation on the 5′-labeled strand: no alkylation
  site of alkylation: alkylation at the site which includes a match site for the polyamide

## (R)-Seco-CBI-β-alanine-(dimethyl)-β-aminobutyric acid [2R]
[2]
  concentration range of alkylation by CBI control compounds: alkylate only at micromolar concentrations
